Experimental data: patent EP0606463B1, “NEUROMEDIN B RECEPTOR ANTAGONISTS” (The Administrators of The Tulane Educational Fund, priority 1992, dated 1994)
Where a SMILES comes first, the peptide text is derived from it. Bridges are numbered along the chain shown (N, C = ends). [ ]: non-standard residue; d: D form. 2Nal = N[C@@H](Cc1ccc2ccccc2c1)C(=O)O; d2Nal = N[C@H](Cc1ccc2ccccc2c1)C(=O)O

Experiments:
sigma opioid receptor = biological target: T1, sigma opioid receptor (Cavia porcellus, UniProt Q60492); assay: sigma opioid membrane receptor assay; format: binding, guinea pig; conditions: at 1 µM
T1 construct: guinea pig cerebral (N1, histamine H1, and sigma opioid membrane receptor assays); from tissue; host or cells: guinea pig cerebral membranes

β1-adrenergic = biological target: T2, β1-adrenergic (Homo sapiens, UniProt P08588); assay: beta1-adrenergic membrane receptor assay; format: binding; conditions: at 1 µM
T2 construct: receptors on plasma membranes on various tissues determined as described in METHODS; from tissue

rat NMB receptor = biological target: T3, rat NMB receptor (Rattus norvegicus, UniProt P24053); assay: Binding of 125I-[D-Tyr0]NMB to NMB-R transfected BALB 3T3 cells; conditions: for fold greater affinity for the NMB than the GRP receptors: NMB-R transfected cells versus GRP receptors on rat pancreatic acini
T3 construct: a full length NMB-preferring bombesin receptor clone generated from rat esophagus; expressed in transfected cells; host or cells: BALB 3T3 cells
T3 sequence (P24053 1-390): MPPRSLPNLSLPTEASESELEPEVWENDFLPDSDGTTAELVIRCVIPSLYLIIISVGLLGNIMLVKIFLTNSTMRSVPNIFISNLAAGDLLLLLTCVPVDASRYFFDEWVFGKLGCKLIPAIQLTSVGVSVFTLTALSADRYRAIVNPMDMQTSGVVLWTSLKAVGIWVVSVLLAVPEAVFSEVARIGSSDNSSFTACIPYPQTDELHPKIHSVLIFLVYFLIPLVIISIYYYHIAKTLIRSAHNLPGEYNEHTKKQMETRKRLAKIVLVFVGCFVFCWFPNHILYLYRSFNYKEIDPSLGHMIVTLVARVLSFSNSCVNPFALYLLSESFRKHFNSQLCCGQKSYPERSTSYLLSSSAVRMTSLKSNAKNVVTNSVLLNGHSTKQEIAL

CCKA receptors = biological target: T4, CCKA receptors (Rattus norvegicus, UniProt P30551); assay: CCKA receptor assay (125I-CCK-8, rat pancreatic membranes); format: binding; conditions: at 1 µM
T4 construct: rat pancreas (CCKA receptor assay); from tissue; host or cells: rat pancreatic membranes

adenosine1 = biological target: T5, adenosine1 (Rattus norvegicus, UniProt P25099); assay: Adenosine membrane receptor assay; format: binding; conditions: at 1 µM
T5 construct: rat cerebral cortex (CCKB, PYY, neurotensin, ∝1-adrenergic, ∝2-adrenergic, muscarinic cholinergic, neural benzodiazepine, peripheral benzodiazepine, adenosine); from tissue; host or cells: rat cerebral cortex membranes

PYY receptor = assay: PYY membrane receptor assay; format: binding, rat; conditions: at 1 µM
histamine H1 = biological target: T6, histamine H1 (Cavia porcellus, UniProt P31389); assay: histamine H1 membrane receptor assay; format: binding, guinea pig; conditions: at 1 µM
T6 construct: guinea pig cerebral (N1, histamine H1, and sigma opioid membrane receptor assays); from tissue; host or cells: guinea pig cerebral membranes

α2- adrenergic = assay: alpha2-adrenergic membrane receptor assay; format: binding, rat; conditions: at 1 µM
NMB Receptor = biological target: T7, NMB Receptor (Rattus norvegicus, UniProt P24053); assay: [3H]inositol phosphates (IP) in NMB-R transfected cells; format: cell-based
T7 construct: a full length NMB-preferring bombesin receptor clone generated from rat esophagus; expressed in transfected cells; host or cells: BALB 3T3 cells
T7 sequence (P24053 1-390): T3 sequence (P24053 1-390)
Summary of the method: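 BALB 3T3 cells stably expressing rat NMB receptor, labelled 48 h with myo-[2-3H]inositol, then 60 min at 37°C in LiCl-containing buffer with agonists, or with 3 nM NMB plus antagonists. Total [3H]IP isolated by anion-exchange chromatography.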

dopamine2 = biological target: T8, dopamine2 (Rattus norvegicus, UniProt P61169); assay: dopamine2 membrane receptor assay; format: binding; conditions: at 1 µM
T8 construct: rat corpus striatum (dopamine1 and dopamine2 membrane receptor assays); from tissue; host or cells: rat corpus striatum membranes

muscarinic cholinergic = assay: Muscarinic cholinergic membrane receptor assay; format: binding, rat; conditions: at 1 µM
α1- adrenergic = assay: alpha1-adrenergic membrane receptor assay; format: binding, rat; conditions: at 1 µM
benzodiazepine-neural = assay: Neural benzodiazepine membrane receptor assay; format: binding, rat; conditions: at 1 µM
TRH receptor = assay: TRH membrane assay; format: binding, rat; conditions: at 1 µM
[1] = biological target: T9, benzodiazepine-peripheral receptor (Rattus norvegicus, UniProt P16257); assay: Peripheral benzodiazepine membrane receptor assay; format: binding; conditions: at 1 µM
T9 construct: rat cerebral cortex (CCKB, PYY, neurotensin, ∝1-adrenergic, ∝2-adrenergic, muscarinic cholinergic, neural benzodiazepine, peripheral benzodiazepine); from tissue; host or cells: rat cerebral cortex membranes
T9 sequence (P16257 whole entry): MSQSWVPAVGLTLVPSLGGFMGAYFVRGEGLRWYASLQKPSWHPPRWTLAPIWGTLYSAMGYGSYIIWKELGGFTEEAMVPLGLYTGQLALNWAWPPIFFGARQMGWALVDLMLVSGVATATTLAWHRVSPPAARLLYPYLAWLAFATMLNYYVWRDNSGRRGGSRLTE

T1 sequence (Q60492 whole entry): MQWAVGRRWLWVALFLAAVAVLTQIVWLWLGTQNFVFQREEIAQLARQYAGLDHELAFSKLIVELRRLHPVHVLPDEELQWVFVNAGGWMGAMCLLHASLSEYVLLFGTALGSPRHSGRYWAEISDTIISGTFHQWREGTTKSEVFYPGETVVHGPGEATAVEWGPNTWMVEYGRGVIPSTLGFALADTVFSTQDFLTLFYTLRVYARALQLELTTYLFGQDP
T8 sequence (P61169 whole entry): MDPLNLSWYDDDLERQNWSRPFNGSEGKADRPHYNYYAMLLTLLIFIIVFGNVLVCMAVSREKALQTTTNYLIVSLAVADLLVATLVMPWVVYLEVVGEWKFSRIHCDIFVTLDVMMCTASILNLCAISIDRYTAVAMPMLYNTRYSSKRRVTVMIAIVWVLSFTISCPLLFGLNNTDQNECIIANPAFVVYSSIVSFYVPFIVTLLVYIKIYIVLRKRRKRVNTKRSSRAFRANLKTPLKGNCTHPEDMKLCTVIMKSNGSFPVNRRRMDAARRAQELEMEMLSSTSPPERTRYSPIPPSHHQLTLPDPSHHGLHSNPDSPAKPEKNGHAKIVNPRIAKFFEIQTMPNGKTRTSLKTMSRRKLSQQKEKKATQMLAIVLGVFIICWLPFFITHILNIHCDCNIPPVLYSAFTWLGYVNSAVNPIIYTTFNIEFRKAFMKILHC
T2 sequence (P08588 whole entry): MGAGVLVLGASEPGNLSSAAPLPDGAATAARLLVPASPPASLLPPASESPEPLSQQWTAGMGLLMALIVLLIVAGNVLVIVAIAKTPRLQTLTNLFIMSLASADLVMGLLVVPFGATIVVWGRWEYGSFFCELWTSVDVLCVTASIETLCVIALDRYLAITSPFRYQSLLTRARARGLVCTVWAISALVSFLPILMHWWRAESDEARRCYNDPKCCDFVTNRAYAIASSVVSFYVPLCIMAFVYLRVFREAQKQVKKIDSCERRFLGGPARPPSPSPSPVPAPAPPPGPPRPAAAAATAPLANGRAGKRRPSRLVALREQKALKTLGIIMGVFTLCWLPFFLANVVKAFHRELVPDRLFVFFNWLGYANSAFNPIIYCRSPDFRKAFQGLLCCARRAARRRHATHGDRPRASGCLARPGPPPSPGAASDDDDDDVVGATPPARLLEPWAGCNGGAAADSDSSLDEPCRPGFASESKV
T6 sequence (P31389 whole entry): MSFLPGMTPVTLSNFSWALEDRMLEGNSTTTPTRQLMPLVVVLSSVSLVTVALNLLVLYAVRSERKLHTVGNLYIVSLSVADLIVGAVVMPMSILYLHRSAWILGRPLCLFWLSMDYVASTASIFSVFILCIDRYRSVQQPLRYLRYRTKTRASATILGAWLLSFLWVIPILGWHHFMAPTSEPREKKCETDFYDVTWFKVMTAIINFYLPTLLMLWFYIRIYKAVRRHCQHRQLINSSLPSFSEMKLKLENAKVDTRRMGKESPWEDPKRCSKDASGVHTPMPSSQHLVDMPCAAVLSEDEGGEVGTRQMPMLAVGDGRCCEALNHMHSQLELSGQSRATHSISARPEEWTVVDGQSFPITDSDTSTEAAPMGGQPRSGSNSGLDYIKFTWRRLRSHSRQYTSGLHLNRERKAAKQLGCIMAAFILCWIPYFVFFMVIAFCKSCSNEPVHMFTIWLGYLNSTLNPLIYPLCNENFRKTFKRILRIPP
T5 sequence (P25099 whole entry): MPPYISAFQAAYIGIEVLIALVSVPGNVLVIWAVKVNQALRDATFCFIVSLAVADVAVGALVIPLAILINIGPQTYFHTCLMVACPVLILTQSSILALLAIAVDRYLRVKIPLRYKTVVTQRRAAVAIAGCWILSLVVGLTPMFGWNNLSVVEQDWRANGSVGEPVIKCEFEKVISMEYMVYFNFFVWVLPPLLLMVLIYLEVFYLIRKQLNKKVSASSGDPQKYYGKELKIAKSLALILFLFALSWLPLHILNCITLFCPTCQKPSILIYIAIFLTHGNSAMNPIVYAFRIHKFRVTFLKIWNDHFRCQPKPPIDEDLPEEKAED
T4 sequence (P30551 whole entry): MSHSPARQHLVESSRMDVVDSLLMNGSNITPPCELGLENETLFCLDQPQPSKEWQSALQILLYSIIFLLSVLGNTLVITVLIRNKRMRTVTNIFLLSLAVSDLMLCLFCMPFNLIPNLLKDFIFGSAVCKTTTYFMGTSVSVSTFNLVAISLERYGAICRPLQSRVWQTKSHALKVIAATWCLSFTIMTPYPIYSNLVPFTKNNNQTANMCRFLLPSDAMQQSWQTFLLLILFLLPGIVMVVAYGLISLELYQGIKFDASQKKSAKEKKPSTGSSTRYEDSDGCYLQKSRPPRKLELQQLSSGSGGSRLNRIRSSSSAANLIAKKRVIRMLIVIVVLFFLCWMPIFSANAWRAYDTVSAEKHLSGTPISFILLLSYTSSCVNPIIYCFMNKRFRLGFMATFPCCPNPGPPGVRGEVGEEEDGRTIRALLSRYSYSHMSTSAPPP

`CC(C)[C@@H]1NC(=O)[C@H](CCCCN)NC(=O)[C@@H](Cc2c[nH]c3ccccc23)NC(=O)[C@H](Cc2ccc(O)cc2)NC(=O)[C@@H](NC(=O)[C@H](N)Cc2ccc3ccccc3c2)CSSC[C@@H](C(=O)N[C@@H](Cc2ccc3ccccc3c2)C(N)=O)NC1=O` [Analog #1, D-Nal-Cys-Tyr-D-Trp-Lys-Val-Cys-Nal-NH2] (H-[d2Nal]CY[dW]KVC[2Nal]-NH2; disulfide 2-7; N-terminus assumed) was tested, and the “inhibition of binding to sigma opioid” value (sigma opioid receptor) was “did not inhibit binding”, the “inhibition of binding to β1-adrenergic” value (β1-adrenergic) was “did not inhibit binding” and the “complete inhibition of binding of ^125I-[Tyr^0]NMB at” value (rat NMB receptor; NMB-R transfected cells) was 3 µM. For the same compound, the “fold greater affinity for the NMB than the GRP receptors” value (rat NMB receptor) was 84 fold, the “fold greater affinity for the NMB than the GRP receptors” value (rat NMB receptor; listed as cyclo SS-octa) was 100 fold and the “detectible inhibition of binding of ^125I-[Tyr^0]NMB at” value (rat NMB receptor; NMB-R transfected cells, lowest concentration with detectable inhibition) was 0.1 µM. For the same compound, the “inhibition of binding to CCKA” value (CCKA receptors) was “did not inhibit binding”, the “inhibition of binding to adenosine1” value (adenosine1) was “did not inhibit binding” and the “inhibition of binding to PYY” value (PYY receptor) was “did not inhibit binding”. For the same compound, the “inhibition of binding to histamine H1” value (histamine H1) was “did not inhibit binding”, the “inhibition of binding to α2- adrenergic” value (α2- adrenergic) was “did not inhibit binding” and the “regression slope of Schild plot” value (NMB Receptor; 1, 3 or 10 µM cyclo SS-octa on NMB dose-response curve) was 1.1(+0.2). For the same compound, the “complete inhibition of NMB-stimulated increases in [^3H]IP at” value (NMB Receptor; NMB-R transfected cells) was 10 µM, the “detectible inhibition of NMB-stimulated increases in [^3H]IP at” value (NMB Receptor; NMB-R transfected cells) was 0.3 µM and the “effect on NMB-stimulated increase in [^3H]IP” value (NMB Receptor; NMB-R transfected cells, 3 nM NMB, peptide 10 µM) was “completely inhibited”. The “NMB-R Transfected Cells [^3H]IP Alone (10 µ M)” value (NMB Receptor; analog 10 µM alone, no-additive control 13 ± 3) was 12 ± 2 dpm x 10^3, the “NMB-R Transfected Cells [^3H]IP Plus NMB (3 nM)” value (NMB Receptor; analog 10 µM plus NMB 3 nM, NMB without analog 186 ± 58) was 8 ± 4 dpm x 10^3 and the Kd (NMB Receptor; rightward shift of NMB dose-response curve, NMB-R transfected cells, read-out: affinity for the NMB receptor from Schild plot) was 231 ± 43 nM. For the same compound, the “inhibition of binding to dopamine2” value (dopamine2) was “did not inhibit binding”, the “inhibition of binding to muscarinic cholinergic” value (muscarinic cholinergic) was “did not inhibit binding” and the “inhibition of binding to α1- adrenergic” value (α1- adrenergic) was “did not inhibit binding”. For the same compound, the “inhibition of binding to benzodiazepine-neural” value (benzodiazepine-neural) was “did not inhibit binding”, the “inhibition of binding to TRH” value (TRH receptor) was “did not inhibit binding” and the “inhibition of binding to benzodiazepine peripheral” value [1] was “did not inhibit binding”.
